Patent US20110071148A1, “COMPOUNDS AS THE ESTROGEN RELATED RECEPTORS MODULATORS AND THE USES THEREOF” (Guangzhou Institute of Biomedicine and Health, Chinese …, priority 2008, published 2011)

Tests used:
[1] = molecular target: T1, GAL-hERRα (human ERRalpha ligand binding domain) (Homo sapiens, UniProt P11474); test: GAL4-hERRα ligand binding domain luciferase reporter assay (UASgx4-TK-Luc with CMV-PGC-1α) in HeLa cells; type: cell-based; conditions: for expression of reporter genes modulated by ERRα: HeLa cell
T1 construct: expressed in transfected cells; host or cells: HeLa cells, transient lipofection
Procedure: To test the effect of the compounds on ERRα and other nuclear hormone receptors, HeLa cells were transiently transfected with expression vectors for the receptors along with appropriate reporter constructs according to methods known in the art. Suitable reporter gene constructs are well known to skilled workers in the fields of biochemistry and molecular biology. Other vectors known in the art can be used in the methods of the present invention.
HeLa cells for the activation assays were grown in Dulbecco's modified Eagle's medium supplemented with 10% resin charcoal-stripped fetal bovine serum at 37° C. in 5% CO2. One day prior to transfection, cells were plated to 50-80% confluence to using phenol red free DMEM-FBS. The cells were transiently transfected by lipofection but other methods of transfection of DNA into cells can be utilized without deviating from the spirit of the invention. Luciferase reporter construct UASgx4-TK-Luc and cytomegalovirus-driven expression vector p-GAL, GAL-hERRα, GAL-L-hERRβ or Gal-mERRγ were added with CMV-PGC-1α. The cells were treated for approximately 24 hours with phenol red free DMEM-FBS containing 0.01% DMSO (control) or 0.01% DMSO with increasing concentrations of DK compounds.

[2] = system: PGC1α-promoter reporter gene driven by ERRα; test: PGC1α-promoter luciferase reporter assay driven by ERRα in HeLa cells; type: cell-based, human; conditions: about 24 hours, increasing concentrations, FIG. 4
Description: HeLa were transiently transfected with the pGL3-promoter (Promega) derivative pGL3-PGC1α-promoter and expression vector for ERRα. The Renilla-Luciferase pRL-CMV Vector (Promega) was included as a control for transfection efficiency. The full length human ERRα was cloned into the expression vector pCMV. The pGL3-PGC1α-promoter was generated by cloning an insert derived from a PCR reaction using human genomic DNA as template and primers based on the 2.6 kbp upstream sequence of the PGC1α transcriptional start site.
HeLa cells for the activation assays were grown in Dulbecco's modified Eagle's medium supplemented with 10% fetal bovine serum at 37° C. in 5% CO2. One day prior to transfection, cells were plated to 50-80% confluence using DMEM-FBS. The cells were transiently transfected by lipofection but other methods of transfection of DNA into cells can be utilized without deviating from the spirit of the invention. Luciferase reporter construct pGL3-PGC1α-promoter and cytomegalovirus-driven expression vector pCMV or pCMV -hERRα were added. The cells were treated for approximately 24 hours with DMEM-FBS containing 0.01% DMSO (control) or 0.01% DMSO with increasing concentrations of DK compounds.

[3] = Oral glucose tolerance test in high-fat-diet mice; type: in vivo, C57BL/J6 mice; conditions: compared to rosiglitazone 10 mg/kg/day
Procedure: Seven weeks old male C57BL/J6 mice were either fed chow diet or a high-fat-diet with 60% calories from lard for 10 weeks. Compounds were administered to animals by gavage for two weeks at different doses. Six groups of animals (n=5) were administered with either vehicle, 10 mg/kg/day rosiglitazone, 0.5 mg/kg/day DK1, 5 mg/kg/day DK1, 0.5 mg/kg/day DK3, or 5 mg/kg/day DK3. Animals were then orally fed glucose. Blood samples were withdrawn at time 0, 15, 30, 60 and 120 min. Blood glucose level was measured by monitor (Accu-chek Advantage, Roche). The changes in blood glucose level were plotted against time and the areas under the curve were calculated for the different groups.

[4] = Liver weight and fatty liver in high-fat-diet mice; type: in vivo, C57BL/J6 mice; conditions: for liver weight: compared to rosiglitazone 10 mg/kg/d
Procedure: Seven weeks old male C57BL/J6 mice were either fed chow diet or a high-fat-diet with 60% calories from lard for 10 weeks. Compounds were administered to animals by gavage for two weeks at different doses. Six groups of animals (n=5) were administered with either vehicle, 10 mg/kg/day rosiglitazone, 0.5 mg/kg/day DK1, 5 mg/kg/day DK1, 0.5 mg/kg/day DK3, or 5 mg/kg/day DK3. Total body weight and livers wet weight from animals were measured. Liver samples to from animals were prepared by histological methods.

[5] = 0.5 mg/kg/day by gavage for two weeks
[6] = 5 mg/kg/day by gavage for two weeks

T1 sequence (P11474 193-421 limits assumed): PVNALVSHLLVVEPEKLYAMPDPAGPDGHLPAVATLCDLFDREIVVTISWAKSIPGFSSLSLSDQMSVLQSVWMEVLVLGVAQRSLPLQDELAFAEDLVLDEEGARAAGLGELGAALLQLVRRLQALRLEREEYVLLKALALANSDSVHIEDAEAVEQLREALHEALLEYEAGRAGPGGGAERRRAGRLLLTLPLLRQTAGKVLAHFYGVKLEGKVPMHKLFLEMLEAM
T1 sequence (P04386 1-147 partner limits assumed): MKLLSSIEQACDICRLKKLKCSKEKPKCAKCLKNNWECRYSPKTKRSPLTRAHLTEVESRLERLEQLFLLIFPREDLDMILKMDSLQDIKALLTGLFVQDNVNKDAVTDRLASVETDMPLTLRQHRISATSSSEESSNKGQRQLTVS
T1 sequence (O70343 whole entry partner, the tested form may be a part): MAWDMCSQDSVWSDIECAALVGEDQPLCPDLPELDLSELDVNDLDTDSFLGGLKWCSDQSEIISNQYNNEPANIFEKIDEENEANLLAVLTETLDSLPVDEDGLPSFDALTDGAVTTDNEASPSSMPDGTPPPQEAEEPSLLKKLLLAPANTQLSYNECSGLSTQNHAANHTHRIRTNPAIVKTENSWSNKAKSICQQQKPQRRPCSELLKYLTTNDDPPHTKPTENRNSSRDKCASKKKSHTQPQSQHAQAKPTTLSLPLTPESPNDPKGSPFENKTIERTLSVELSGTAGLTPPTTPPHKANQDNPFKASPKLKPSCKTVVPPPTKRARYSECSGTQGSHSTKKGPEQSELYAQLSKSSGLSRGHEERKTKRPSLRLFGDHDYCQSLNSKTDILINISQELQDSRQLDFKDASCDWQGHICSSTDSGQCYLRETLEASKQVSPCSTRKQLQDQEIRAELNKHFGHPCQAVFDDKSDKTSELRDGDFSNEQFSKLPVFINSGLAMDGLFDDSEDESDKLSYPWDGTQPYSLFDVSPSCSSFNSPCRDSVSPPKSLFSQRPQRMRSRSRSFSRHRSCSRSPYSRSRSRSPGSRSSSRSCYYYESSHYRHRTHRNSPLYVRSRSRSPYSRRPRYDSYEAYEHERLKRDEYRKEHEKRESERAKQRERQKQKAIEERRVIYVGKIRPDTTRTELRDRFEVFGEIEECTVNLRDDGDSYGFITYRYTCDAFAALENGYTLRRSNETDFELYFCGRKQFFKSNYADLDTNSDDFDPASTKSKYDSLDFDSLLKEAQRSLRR

| expression of reporter genes modulated by ERRα [1] | SMILES | reversal of the suppressive effect of ERRα specific inverse agonist XCT-790 ([1]; HeLa cells, FIG. 2) | activity of GAL-hERRα on reporter construct UASgx4-TK-Luc ([1]; HeLa cells, in the presence of CMV-PGC-1α, increasing concentrations) | PGC1α-promoter reporter gene driven by ERRα [2] | area under the curve of the oral glucose tolerance test [3, 5] | area under the curve of the oral glucose tolerance test [3, 6] | liver weight [4, 5] | liver weight [4, 6] | extent of fatty liver induced by high-fat-diet ([4]; gavage for two weeks, histology, FIGS. 7 and 8) |
| --- | --- | --- | --- | --- | --- | --- | --- | --- | --- |
| effectively enhance | COc1ccc2c(=O)n(C)c(-c3ccc(Br)cc3)nc2c1 [Compound 4, 2-(4-bromophenyl)-7-methoxy-3-methylquinazolin-4(3H)-one] |  |  |  |  |  |  |  |  |
| effectively enhance | COc1ccc2c(=O)n(C)c(-c3ccc(F)cc3)nc2c1 [Compound 3, 2-(4-fluorophenyl)-7-methoxy-3-methylquinazolin-4(3H)-one] |  |  |  |  |  |  |  |  |

| SMILES | expression of reporter genes modulated by ERRα [1] | reversal of the suppressive effect of ERRα specific inverse agonist XCT-790 ([1]; HeLa cells, FIG. 2) | activity of GAL-hERRα on reporter construct UASgx4-TK-Luc ([1]; HeLa cells, in the presence of CMV-PGC-1α, increasing concentrations) | PGC1α-promoter reporter gene driven by ERRα [2] | area under the curve of the oral glucose tolerance test [3, 5] | area under the curve of the oral glucose tolerance test [3, 6] | liver weight [4, 5] | liver weight [4, 6] | extent of fatty liver induced by high-fat-diet ([4]; gavage for two weeks, histology, FIGS. 7 and 8) |
| --- | --- | --- | --- | --- | --- | --- | --- | --- | --- |
| COc1ccc2c(=O)n(C)c(-c3ccccc3)nc2c1 [Compound 1, 7-methoxy-3-methyl-2-phenylquinazolin-4(3H)-one] | effectively enhance | dose-dependently reverses | dose-dependently enhances | dose-dependent enhancement | reduced | reduced | did not increase | did not increase | reduce the extent of fatty liver |
